“Also recorded” adds a separate entry of the source.
Columns and labels:
ob/ob mice [1] = test: Insulin sensitivity (blood glucose after IP human insulin) in non-fasting ob/ob mice given toxin; assay type: in vivo, mouse; settings: for insulin sensitivity: non-fasting ob/ob mice, toxin IP 30 minutes before insulin
Experimental: Non-fasting ob/ob (obese) mice (n=5), were given margatoxin 30 minutes prior to study as described elsewhere herein. Age-matched control ob/ob mice were sham injected with PBS. Both groups were given human insulin and blood glucose levels were monitored as described previously.
Non-fasting ob/ob (obese) mice (n=5), were given kaliotoxin (Alomone, Israel) 30 minutes prior to study as described elsewhere herein. Age-matched control ob/ob mice were sham injected with PBS. Both groups were given human insulin and blood glucose levels were monitored as described previously.

Kv1.3 = Kv1.3 (Homo sapiens, UniProt P22001); settings: cited from earlier work; for inhibition of Kv1.3 activity: therapeutic levels
Kv1.3, sequence (P22001 whole entry): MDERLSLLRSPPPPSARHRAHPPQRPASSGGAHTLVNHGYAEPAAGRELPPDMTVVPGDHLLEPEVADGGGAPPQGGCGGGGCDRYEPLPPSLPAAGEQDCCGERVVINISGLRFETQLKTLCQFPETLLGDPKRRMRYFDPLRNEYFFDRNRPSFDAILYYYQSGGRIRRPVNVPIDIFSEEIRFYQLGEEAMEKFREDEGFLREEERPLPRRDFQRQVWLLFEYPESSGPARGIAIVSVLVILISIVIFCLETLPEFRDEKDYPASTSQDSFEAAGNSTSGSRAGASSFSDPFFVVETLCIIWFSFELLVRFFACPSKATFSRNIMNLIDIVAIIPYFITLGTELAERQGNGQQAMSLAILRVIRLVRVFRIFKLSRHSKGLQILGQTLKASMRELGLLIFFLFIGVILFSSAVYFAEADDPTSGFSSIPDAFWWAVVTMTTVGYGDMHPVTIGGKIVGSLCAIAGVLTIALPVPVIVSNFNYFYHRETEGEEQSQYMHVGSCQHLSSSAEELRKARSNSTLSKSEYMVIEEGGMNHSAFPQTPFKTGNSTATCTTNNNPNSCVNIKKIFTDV

Kv1.1 = Kv1.1 (Homo sapiens, UniProt Q09470); settings: cited from earlier work
Kv1.1, sequence (Q09470 whole entry): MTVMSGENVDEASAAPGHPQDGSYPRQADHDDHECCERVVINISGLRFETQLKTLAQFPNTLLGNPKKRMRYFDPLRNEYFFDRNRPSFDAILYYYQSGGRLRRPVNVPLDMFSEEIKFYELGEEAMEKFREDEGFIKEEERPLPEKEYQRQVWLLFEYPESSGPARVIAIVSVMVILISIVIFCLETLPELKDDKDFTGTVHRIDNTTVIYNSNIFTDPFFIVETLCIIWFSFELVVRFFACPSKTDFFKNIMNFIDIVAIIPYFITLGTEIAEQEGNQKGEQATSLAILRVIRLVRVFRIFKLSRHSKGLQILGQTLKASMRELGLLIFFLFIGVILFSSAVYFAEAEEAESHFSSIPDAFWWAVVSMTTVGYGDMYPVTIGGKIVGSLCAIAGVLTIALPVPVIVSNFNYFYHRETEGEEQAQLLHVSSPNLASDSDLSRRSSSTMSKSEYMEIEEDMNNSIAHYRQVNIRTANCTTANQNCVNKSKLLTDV

Kv1.2 = Kv1.2 (Homo sapiens, UniProt P16389); settings: cited from earlier work
Kv1.2, sequence (P16389 whole entry): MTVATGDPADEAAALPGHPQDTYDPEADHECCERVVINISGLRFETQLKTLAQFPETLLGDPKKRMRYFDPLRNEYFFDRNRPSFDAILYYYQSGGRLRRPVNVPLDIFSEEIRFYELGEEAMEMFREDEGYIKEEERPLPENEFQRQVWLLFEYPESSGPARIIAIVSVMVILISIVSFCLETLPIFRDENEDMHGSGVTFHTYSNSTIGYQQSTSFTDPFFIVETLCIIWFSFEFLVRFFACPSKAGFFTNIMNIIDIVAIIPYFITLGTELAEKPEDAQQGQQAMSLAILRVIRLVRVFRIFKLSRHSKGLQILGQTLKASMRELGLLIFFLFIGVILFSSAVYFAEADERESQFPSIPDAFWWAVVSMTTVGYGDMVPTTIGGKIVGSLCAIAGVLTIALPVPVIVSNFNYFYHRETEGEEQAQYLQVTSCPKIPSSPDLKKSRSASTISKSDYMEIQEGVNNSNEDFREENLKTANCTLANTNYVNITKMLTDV

[2] = therapeutic dosages; cited from earlier work
C57BL/6 mice = test: Insulin sensitivity (blood glucose after IP human insulin) in wild type C57BL/6 mice given margatoxin; assay type: in vivo, mouse
Experimental: Plasma insulin levels and insulin sensitivity: Seven-week old C57BL6/6J male mice (n=5) were given 0.1 μg/gram body weight margatoxin 20 hours prior to study via IP injection. Controls (n=5) were sham injected with phosphate buffered saline (PBS). Two hours prior to study a second injection of margatoxin was administered to the treated experimental group. At t=0, both groups received human insulin as described previously. Blood glucose measurements were performed at the times indicated.

db/db mice = test: Insulin sensitivity (blood glucose after IP human insulin) in fasting db/db mice given margatoxin; assay type: in vivo, mouse
Experimental: Fasting db/db (diabetic) mice (n=5), were given margatoxin 30 minutes prior to study as described elsewhere herein. Age-matched control db/db mice were sham injected with PBS. Both groups were given human insulin and blood glucose levels were monitored as described previously.

ob/ob mice [3] = test: Long-term pharmacological inhibition of Kv1.3 in ob/ob mice: food consumption and body weight; assay type: in vivo, mouse
Experimental: Long-term pharmacological inhibition of Kv1.3: Ob/ob mice were injected intraperitoneally with margatoxin or PBS (n=5 for each group) on days 0, 5, and 16 as described herein. Food consumption was monitored for 30 days, and weights were measured at the end of 30 days.

L6 cells = test: D-glucose uptake in L6 cells; assay type: cell-based, rat
Experimental: D-glucose uptake in L6 cells: L6 cells were maintained in Dulbecco's Modified Eagle's Medium (DMEM) containing 10% fetal bovine serum (FBS) and 1% penicillin-streptomycin in T-75 flasks at 37° C. and 5% CO2. To promote fusion into myotubules and quiescence, L6 cells were seeded onto 10 cm^2 flasks at a density of 3000 cells/cm^2 in DMEM containing 2% FBS. Myotube formation was determined by the percentage of nuclei in multinucleated cells. Glucose uptake assays were performed when 80-90% of the myoblasts fused into myotubes. Cells were serum starved for 3 hours in DMEM containing 0.2% bovine serum albumin, washed twice in PBS with 0.1 mM CaCl2, 0.1 MgCl2, 10 mM HEPES, pH 7.4. […] 2-deoxy-(^3H)D-glucose (1 μCi/ml, 10 μM/liter) uptake was measured in triplicate over a 10 minute period. The reaction was terminated by washing with ice-cold PBS. Non-specific uptake was determined by adding 10 mM phloretin and was subtracted from total uptake. Cells were lysed in 0.1 N KOH, and glucose uptake was measured by liquid scintillation (Packard BioScience, Meriden Conn.). […] was measured by Bradford Assay.

## kaliotoxin
ob/ob mice [1]; animals treated with kaliotoxin and insulin
  blood glucose, toxin and insulin vs insulin only: significantly lower blood glucose
ob/ob mice [1]; vs PBS
  insulin sensitivity: significantly increased insulin sensitivity
Kv1.3
  IC50: 0.6 nM
Kv1.1
  IC50: 40 nM
Kv1.2
  inhibition of Kv1.2: but not Kv1.2

## CNCCC(Oc1ccc(C(F)(F)F)cc1)c1ccccc1 (stereo not drawn) [fluxetine]
Kv1.3
  inhibition of Kv1.3 activity: inhibit Kv1.3 activity
[2]
  insulin sensitivity: increase insulin sensitivity

## margatoxin (TIINVKCTSPKQCLPPCKAQFGQSAGAKCMNGKCKCYPH)
C57BL/6 mice; C57BL/6 mice, 0.1 μg/gram margatoxin IP, vs sham (PBS) injected controls
  insulin sensitivity: increased insulin sensitivity
C57BL/6 mice; wild type C57BL/6 mice, margatoxin injection prior to study, vs PBS
  fasting blood glucose: lower fasting blood glucose
C57BL/6 mice; wild type C57BL/6 mice, toxin-treated vs PBS
  blood glucose in response to insulin: significantly lower blood glucose in response to insulin
ob/ob mice [1]; vs PBS
  insulin sensitivity: significantly increased insulin sensitivity; also recorded: significantly more sensitive to insulin
ob/ob mice [1]; ob/ob mice, margatoxin vs PBS
  time after insulin at which difference in glucose level was evident: ≤ 30 min
  time for which difference in glucose level persisted: at least 3 hours
ob/ob mice [1]; ob/ob mice, single injection of margatoxin, vs PBS
  fall in blood glucose in response to insulin administration, greater than in control mice: 50%
db/db mice; db/db mice, margatoxin and insulin vs PBS and insulin
  fall in blood glucose of mice receiving insulin: significantly greater fall in blood glucose
db/db mice; db/db mice, margatoxin vs PBS
  time at which difference in glucose levels was evident: ≤ 30 min
  time for which difference in glucose levels persisted: up to 4.5 hours
db/db mice; fasting db/db mice, margatoxin IP 30 minutes before insulin, vs PBS
  sensitivity to insulin: significant increase in sensitivity to insulin
ob/ob mice [3]; ob/ob mice treated long term with margatoxin, IP days 0, 5, 16
  body weight vs controls: weighed significantly less than controls
ob/ob mice [3]; ob/ob mice, weights assessed to day 36
  body weight after margatoxin treatment ceased at day 16: began to gain weight thereafter
L6 cells; 200 nM insulin and 250 nM margatoxin, vs either alone or neither
  glucose uptake in L6 cells, margatoxin together with insulin: significantly increased glucose uptake; also recorded: additive to that of insulin
L6 cells; 2-deoxy-D-glucose, phloretin-sensitive uptake, 0.2-250 nM margatoxin
  glucose uptake in L6 cells: increases uptake of glucose in L6 cells in a dose dependent manner; also recorded: significant increase in phloretin-sensitive glucose uptake
L6 cells; L6 cells, read-out: concentration necessary for 1/2 maximal increase in glucose uptake
  EC50: 53 nM
Kv1.3
  inhibition of Kv1.3: fairly specific and potent inhibitor of Kv1.3
Kv1.2
  inhibition of Kv1.2: also blocks Kv1.2

## COc1ccc(CCN(C)CCCC(C#N)(c2ccc(OC)c(OC)c2)C(C)C)cc1OC (stereo not drawn) [verapamil]
Kv1.3
  inhibition of Kv1.3 activity: inhibit Kv1.3 activity
[2]
  insulin sensitivity: increase insulin sensitivity
